Positions of bridges follow the written chain, without caps; N, C: chain ends. Non-standard residues stand in square brackets, D forms with d. Residues, ends and D or L forms follow the SMILES beside them. *: point of attachment. Me3N+(CH2)2O(CH2)2O(CH2)2CO = C[N+](C)(C)CCOCCOCCC(=O)*; Trp(7-Me) = Cc1cccc2c(C[C@H](N)C(=O)O)c[nH]c12; 2Nal = N[C@@H](Cc1ccc2ccccc2c1)C(=O)O; 3Pal = N[C@@H](Cc1cccnc1)C(=O)O; Lys(Me) = CNCCCC[C@H](N)C(=O)O; Pen = CC(C)(S)[C@H](N)C(=O)O; Thp = NC1(C(=O)O)CCOCC1; X3 = C[N+](C)(C)CCCCC*; Sar = CNCC(=O)O Some results are limits rather than exact numbers.

For one data set, the target named is T1, IL-23R (Homo sapiens, UniProt Q5VWK5).
T1 construct: host or cells: HEK293
T1 sequence (Q5VWK5 24-629): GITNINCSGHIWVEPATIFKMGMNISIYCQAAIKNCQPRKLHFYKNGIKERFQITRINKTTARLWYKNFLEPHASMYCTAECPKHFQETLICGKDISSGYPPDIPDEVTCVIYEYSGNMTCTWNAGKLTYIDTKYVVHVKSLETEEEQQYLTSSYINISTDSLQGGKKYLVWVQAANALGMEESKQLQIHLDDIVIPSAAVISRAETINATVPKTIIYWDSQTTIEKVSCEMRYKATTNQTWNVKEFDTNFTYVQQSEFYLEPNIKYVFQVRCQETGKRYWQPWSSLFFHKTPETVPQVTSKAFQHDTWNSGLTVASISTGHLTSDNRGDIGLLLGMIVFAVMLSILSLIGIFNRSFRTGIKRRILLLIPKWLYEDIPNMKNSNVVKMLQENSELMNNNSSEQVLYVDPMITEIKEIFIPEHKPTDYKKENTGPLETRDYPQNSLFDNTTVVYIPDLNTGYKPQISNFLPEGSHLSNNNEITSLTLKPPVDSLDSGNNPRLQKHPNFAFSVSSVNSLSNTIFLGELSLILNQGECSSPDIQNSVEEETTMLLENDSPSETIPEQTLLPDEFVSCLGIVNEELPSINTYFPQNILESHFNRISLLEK
Nature of the data set: IL23R Reporter Assay. Particulars: HEK293 cells containing IL-23R, IL-12RP1 and STAT-inducible firefly luciferase reporter; 10 ng/mL IL-23 (EC90); 5 h at 37° C.; read-out: IL23R Reporter Assay. The data set is classed as cell-based.

The nature of data set [1]: Exposed Polar Surface Area (EPSA). Format: physicochemical. As to conditions: SFC on Chirex 3014 column; sample 1 mM DMSO stock; read-out: EPSA. In outline: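 Retention-based polarity: supercritical CO2 with 20 mM ammonium formate in MeOH (5–60%, 20%/min), Chirex 3014 column, 35 °C. Calibrated against 8 standards to give EPSA (Å^2); each sample measured twice.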

In the case of `CC(=O)N(C)CCCC[C@@H]1NC(=O)[C@H](Cc2c[nH]c3c(C)cccc23)NC(=O)[C@H]([C@@H](C)O)NC(=O)[C@H](C)NC(=O)[C@@H](NC(=O)CCOCCOCC[N+](C)(C)C)C(C)(C)SSC(C)(C)[C@@H](C(=O)N[C@@H](Cc2ccc(OCCCCC[N+](C)(C)C)cc2)C(=O)N[C@@H](Cc2ccc3ccccc3c2)C(=O)NC2(C(=O)N[C@@H](CCCCN(C)C(C)=O)C(=O)N[C@@H](CC(N)=O)C(=O)N[C@@H](Cc3cccnc3)C(=O)N(C)CC(=O)N(C)C)CCOCC2)NC1=O` [compound 496, cPEG3aCO-Pen(3)-a-T-7MeW-K(NMeAc)-Pen(3)-TMAPF-2Nal-THP-K(NMeAc)-N-3Pya-Sar-CON(Me)2] ({Me3N+(CH2)2O(CH2)2O(CH2)2CO}-[Pen]AT[Trp(7-Me)][Lys(Me)](Ac)[Pen]Y(X3)[2Nal][Thp][Lys(Me)](Ac)N[3Pal][Sar]-NMe2; disulfide 1-6), the IC50 on IL-23R worked out at 6 nM. The EPSA in data set [1] stood at 161 A^2.

For the molecule `CC(=O)N(C)CCCC[C@@H]1NC(=O)[C@H](Cc2c[nH]c3c(C)cccc23)NC(=O)[C@H]([C@@H](C)O)NC(=O)[C@H](CC(=O)N(C)C)NC(=O)[C@@H](NC(=O)CCOCCOCC[N+](C)(C)C)C(C)(C)SSC(C)(C)[C@@H](C(=O)N[C@@H](Cc2ccc(OCCCCC[N+](C)(C)C)cc2)C(=O)N[C@@H](Cc2c[nH]c3ccccc23)C(=O)NC2(C(=O)N[C@@H](CCCCN(C)C(C)=O)C(=O)N[C@@H](CC(N)=O)C(=O)N[C@@H](Cc3cccnc3)C(=O)N(C)CC(=O)N(C)C)CCOCC2)NC1=O` [compound 497, cPEG3aCO-Pen(3)-N(N(Me)2)-T-7MeW-K(NMeAc)-Pen(3)-TMApF-W-THP-K(NMeAc)-N-3Pya-Sar-CON(Me)2] ({Me3N+(CH2)2O(CH2)2O(CH2)2CO}-[Pen]D(NMe2)T[Trp(7-Me)][Lys(Me)](Ac)[Pen]Y(X3)W[Thp][Lys(Me)](Ac)N[3Pal][Sar]-NMe2; disulfide 1-6), the IC50 at IL-23R was found to be 80 nM. For the same molecule, the EPSA in data set [1] was determined as 162 A^2.

Take `CC(=O)N(C)CCCC[C@@H]1NC(=O)[C@H](Cc2c[nH]c3c(C)cccc23)NC(=O)[C@H]([C@@H](C)O)NC(=O)[C@H](CC(=O)N(C)C)NC(=O)[C@@H](NC(=O)CCOCCOCC[N+](C)(C)C)C(C)(C)SSC(C)(C)[C@@H](C(=O)N[C@@H](Cc2ccc(OCCCCC[N+](C)(C)C)cc2)C(=O)N[C@@H](Cc2ccccc2)C(=O)NC2(C(=O)N[C@@H](CCCCN(C)C(C)=O)C(=O)N[C@@H](CC(N)=O)C(=O)N[C@@H](Cc3cccnc3)C(=O)N(C)CC(=O)N(C)C)CCOCC2)NC1=O` [compound 498, cPEG3aCO-Pen(3)-N(N(Me)2)-T-7MeW-K(NMeAc)-Pen(3)-TMApF-F-THP-K(NMeAc)-N-3Pya-Sar-CON(Me)2] ({Me3N+(CH2)2O(CH2)2O(CH2)2CO}-[Pen]D(NMe2)T[Trp(7-Me)][Lys(Me)](Ac)[Pen]Y(X3)F[Thp][Lys(Me)](Ac)N[3Pal][Sar]-NMe2; disulfide 1-6): the IC50 at IL-23R was 27 nM. Moreover, the EPSA in data set [1] is 162 A^2.

On to `CC(=O)N(C)CCCC[C@@H]1NC(=O)[C@H](Cc2c[nH]c3c(C)cccc23)NC(=O)[C@H]([C@@H](C)O)NC(=O)[C@H](CC(=O)N(C)C)NC(=O)[C@@H](NC(=O)CCOCCOCC[N+](C)(C)C)C(C)(C)SSC(C)(C)[C@@H](C(=O)N[C@@H](Cc2ccc(OCCCCC[N+](C)(C)C)cc2)C(=O)N[C@@H](CC(C)C)C(=O)NC2(C(=O)N[C@@H](CCCCN(C)C(C)=O)C(=O)N[C@@H](CC(N)=O)C(=O)N[C@@H](Cc3cccnc3)C(=O)N(C)CC(=O)N(C)C)CCOCC2)NC1=O` [compound 499, cPEG3aCO-Pen(3)-N(N(Me)2)-T-7MeW-K(NMeAc)-Pen(3)-TMApF-L-THP-K(NMeAc)-N-3Pya-Sar-CON(Me)2] ({Me3N+(CH2)2O(CH2)2O(CH2)2CO}-[Pen]D(NMe2)T[Trp(7-Me)][Lys(Me)](Ac)[Pen]Y(X3)L[Thp][Lys(Me)](Ac)N[3Pal][Sar]-NMe2; disulfide 1-6), for which the IC50 on IL-23R was more than 1630 nM. The EPSA in data set [1] was 133 A^2.

Regarding `CC(=O)N(C)CCCC[C@@H]1NC(=O)[C@H](Cc2c[nH]c3c(C)cccc23)NC(=O)[C@H]([C@@H](C)O)NC(=O)[C@H](CC(=O)N(C)C)NC(=O)[C@@H](NC(=O)CCOCCOCC[N+](C)(C)C)C(C)(C)SSC(C)(C)[C@@H](C(=O)N[C@@H](Cc2ccc(OCCCCC[N+](C)(C)C)cc2)C(=O)N[C@@H](C)C(=O)NC2(C(=O)N[C@@H](CCCCN(C)C(C)=O)C(=O)N[C@@H](CC(N)=O)C(=O)N[C@@H](Cc3cccnc3)C(=O)N(C)CC(=O)N(C)C)CCOCC2)NC1=O` [compound 500, cPEG3aCO-Pen(3)-N(N(Me)2)-T-7MeW-K(NMeAc)-Pen(3)-TMApF-A-THP-K(NMeAc)-N-3Pya-Sar-CON(Me)2] ({Me3N+(CH2)2O(CH2)2O(CH2)2CO}-[Pen]D(NMe2)T[Trp(7-Me)][Lys(Me)](Ac)[Pen]Y(X3)A[Thp][Lys(Me)](Ac)N[3Pal][Sar]-NMe2; disulfide 1-6), on IL-23R, the IC50 is more than 1190 nM. Also, the EPSA in data set [1] is 159 A^2.

In the case of `CC(=O)NCCCC[C@@H]1NC(=O)[C@H](Cc2c[nH]c3c(-c4cccc(NC(C)=O)c4)cccc23)NC(=O)[C@H]([C@@H](C)O)NC(=O)[C@H](CC(N)=O)NC(=O)[C@@H](NC(=O)CCOCCOCC[N+](C)(C)C)C(C)(C)SSC(C)(C)[C@@H](C(=O)N[C@@H](Cc2ccc(OCCCCC[N+](C)(C)C)cc2)C(=O)N[C@@H](Cc2ccc3ccccc3c2)C(=O)NC2(C(=O)N[C@@H](CCCCN(C)C(C)=O)C(=O)N[C@@H](CC(N)=O)C(=O)N[C@@H](Cc3cncc(C)c3)C(=O)N(C)CC(N)=O)CCOCC2)NC1=O` [compound 501, cPEG3aCO-Pen(3)-N-T-7(3NAcPh)W-K(Ac)-Pen(3)-TMAPF-2Nal-THP-K(NMeAc)-N-5MePyridinAla-Sar-CONH2], the IC50 on IL-23R was determined as 4.6 nM. Moreover, in data set [1], the EPSA came out at 175 A^2.

Regarding `CC(=O)NCCCC[C@@H]1NC(=O)[C@H](Cc2c[nH]c3c(-c4cccc(NC(C)=O)c4)cccc23)NC(=O)[C@H]([C@@H](C)O)NC(=O)[C@H](CC(N)=O)NC(=O)[C@@H](NC(C)=O)C(C)(C)SSC(C)(C)[C@@H](C(=O)N[C@@H](Cc2ccc(OCCCCC[N+](C)(C)C)cc2)C(=O)N[C@@H](Cc2ccc3ccccc3c2)C(=O)NC2(C(=O)N[C@@H](CCCCN(C)C(C)=O)C(=O)N[C@@H](CC(N)=O)C(=O)N[C@@H](Cc3cncc(C)c3)C(=O)N(C)CC(N)=O)CCOCC2)NC1=O` [compound 502, MeCO-Pen(3)-N-T-7(3NAcPh)W-K(Ac)-Pen(3)-TMAPF-2Nal-THP-K(NMeAc)-N-5MePyridinAla-Sar-CONH2], the IC50 at IL-23R was found to be 3.8 nM. In addition, the EPSA in data set [1] was found to be 169 A^2.

For the molecule `CC(=O)NCCCC[C@@H]1NC(=O)[C@H](Cc2c[nH]c3c(-c4cccc(NC(C)=O)c4)cccc23)NC(=O)[C@H]([C@@H](C)O)NC(=O)[C@H](CC(N)=O)NC(=O)[C@@H](NC(C)=O)C(C)(C)SSC(C)(C)[C@@H](C(=O)N[C@@H](Cc2ccc(OCCCCC[N+](C)(C)C)cc2)C(=O)N[C@@H](Cc2ccc3ccccc3c2)C(=O)NC2(C(=O)N[C@@H](CCCCNC(C)=O)C(=O)N[C@@H](CC(N)=O)C(=O)N[C@@H](Cc3cncc(C)c3)C(=O)N(C)CC(N)=O)CCOCC2)NC1=O` [compound 503, MeCO-Pen(3)-N-T-7(3NAcPh)W-K(Ac)-Pen(3)-TMAPF-2Nal-THP-K(Ac)-N-5MePyridinAla-Sar-CONH2], at IL-23R, the IC50 stood at 8.4 nM. In addition, in data set [1], the EPSA was found to be 169 A^2.

Turning to `CC(=O)NCCCC[C@@H]1NC(=O)[C@H](Cc2c[nH]c3c(-c4cccc(NC(C)=O)c4)cccc23)NC(=O)[C@H]([C@@H](C)O)NC(=O)[C@H](CC(N)=O)NC(=O)[C@@H](NC(C)=O)C(C)(C)SSC(C)(C)[C@@H](C(=O)N[C@@H](Cc2ccc(OCCCCC[N+](C)(C)C)cc2)C(=O)N[C@@H](Cc2ccc3ccccc3c2)C(=O)NC2(C(=O)N[C@@H](CCC(=O)O)C(=O)N[C@@H](CC(N)=O)C(=O)N[C@@H](Cc3cncc(C)c3)C(=O)N(C)CC(N)=O)CCOCC2)NC1=O` [compound 504, MeCO-Pen(3)-N-T-7(3NAcPh)W-K(Ac)-Pen(3)-TMAPF-2Nal-THP-E-N-5MePyridinAla-Sar-CONH2], the IC50 on IL-23R was 8.6 nM. In addition, in data set [1], the EPSA stood at 178 A^2.

On to `CC(=O)NCCCC[C@@H]1NC(=O)[C@H](Cc2c[nH]c3c(C)cccc23)NC(=O)[C@H]([C@@H](C)O)NC(=O)[C@H](CC(N)=O)NC(=O)[C@@H](NC(=O)CCOCCOCC[N+](C)(C)C)C(C)(C)SSC(C)(C)[C@@H](C(=O)N[C@@H](Cc2ccc(OCCN)cc2)C(=O)N[C@@H](Cc2ccc3ccccc3c2)C(=O)NC2(C(=O)N[C@@H](CCC(=O)O)C(=O)N[C@@H](CC(N)=O)C(=O)N[C@@H](Cc3cncc(C)c3)C(=O)N(C)CC(N)=O)CCOCC2)NC1=O` [compound 506, cPEG3aCO-Pen(3)-N-T-7MeW-K(Ac)-Pen(3)-AEF-2Nal-THP-E-N-5MePyridinAla-Sar-CONH2], for which, at IL-23R, the IC50 amounted to 4.1 nM. In addition, the EPSA in data set [1] worked out at 191 A^2.

(Values after patent US20260022143A1, “Cyclic Peptide Inhibitors of IL-23” (JANSSEN PHARMACEUTICA NV, priority 2022, published 2026).)
